According to patent US9200008B2 (ASKA PHARMACEUTICAL CO., LTD., priority 2010, dated 2015):

Tested on: Human prostate cancer cell lines (PC-3 cells)
Test: Measurement of cell death-inducing activity (Test Example 1)
Assay type: cell-based
Settings: PC-3, 48 h, 48 hours after addition, tested at 10, 1, 0.1, 0.025 and 0.00625 μmol/L, qualitative evaluation of 10 fields, read-out: Concentration showing the cell death-inducing activity (cell death-inducing rate not less than 40%)
Outline: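 PC-3 cells seeded at 1×10^5 cells/well and grown 48 h at 37 °C, 5% CO2, then exposed to compound at 10, 1, 0.1, 0.025 and 0.00625 μmol/L (DMSO control) for a further 48 h. Activity was called where cell death-inducing rate was not less than 40%.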

SMILES	minimal effective concentration
COc1ccccc1-c1cc(COC(=O)Nc2ccc3c(c2)nc2n3CCCC2)n(C)n1 [Example 13-114]	0.1 µM
CCn1nc(-c2ccccc2OC)cc1COC(=O)Nc1ccc2c(c1)nc1n2CCCC1 [Example 13-115]	0.1 µM
COc1cc(F)ccc1-c1cc(COC(=O)Nc2ccc3c(c2)nc2n3CCCC2)n(C)n1 [Example 13-116]	0.025 µM
CCn1nc(-c2ccc(F)cc2OC)cc1COC(=O)Nc1ccc2c(c1)nc1n2CCCC1 [Example 13-117]	0.1 µM
COc1cc(Cl)ccc1-c1cc(COC(=O)Nc2ccc3c(c2)nc2n3CCCC2)n(C)n1 [Example 13-118]	0.00625 µM
CCn1nc(-c2ccc(Cl)cc2OC)cc1COC(=O)Nc1ccc2c(c1)nc1n2CCCC1 [Example 13-119]	0.025 µM
COc1cc(C)ccc1-c1cc(COC(=O)Nc2ccc3c(c2)nc2n3CCCC2)n(C)n1 [Example 13-120]	0.025 µM
CCn1nc(-c2ccc(C)cc2OC)cc1COC(=O)Nc1ccc2c(c1)nc1n2CCCC1 [Example 13-121]	0.025 µM
Cc1ccc(-c2cc(COC(=O)Nc3ccc4c(c3)nc3n4CCCC3)n(C)n2)c(C)c1 [Example 13-122]	0.025 µM
CCn1nc(-c2ccc(C)cc2C)cc1COC(=O)Nc1ccc2c(c1)nc1n2CCCC1 [Example 13-123]	0.025 µM
CCn1nc(-c2ccccc2OC)cc1COC(=O)Nc1ccc2c(cnn2C)c1 [Example 13-124]	10 µM
COc1cc(F)ccc1-c1cc(COC(=O)Nc2ccc3c(cnn3C)c2)n(C)n1 [Example 13-125]	1 µM
CCn1nc(-c2ccc(F)cc2OC)cc1COC(=O)Nc1ccc2c(cnn2C)c1 [Example 13-126]	10 µM
COc1cc(Cl)ccc1-c1cc(COC(=O)Nc2ccc3c(cnn3C)c2)n(C)n1 [Example 13-127]	0.1 µM
CCn1nc(-c2ccc(Cl)cc2OC)cc1COC(=O)Nc1ccc2c(cnn2C)c1 [Example 13-128]	1 µM
CCn1ncc2cc(NC(=O)OCc3cc(-c4ccc(Cl)cc4OC)nn3C)ccc21 [Example 13-129]	0.025 µM
CCn1nc(-c2ccc(C)cc2OC)cc1COC(=O)Nc1ccc2c(cnn2C)c1 [Example 13-130]	1 µM
Cc1ccc(-c2cc(COC(=O)Nc3ccc4c(cnn4C)c3)n(C)n2)c(C)c1 [Example 13-131]	1 µM
CCn1nc(-c2ccc(C)cc2C)cc1COC(=O)Nc1ccc2c(cnn2C)c1 [Example 13-132]	1 µM
CCn1cc2cc(NC(=O)OCc3cc(-c4ccc(Cl)cc4OC)nn3C)ccc2n1 [Example 13-133]	0.00625 µM
COc1cc(F)ccc1-c1cc(COC(=O)Nc2ccc3c(c2)ncn3C)nn1C [Example 13-135]	0.1 µM
COc1cc(Cl)ccc1-c1cc(COC(=O)Nc2ccc3c(c2)ncn3C)nn1C [Example 13-137]	10 µM
Cc1ccc(-c2cc(COC(=O)Nc3ccc4c(c3)ncn4C)nn2C)c(C)c1 [Example 13-141]	10 µM
COc1cc(Cl)ccc1-c1cc(COC(=O)Nc2ccc3c(c2)nc2n3CCOC2)nn1C [Example 13-144]	10 µM
CCc1nc(-c2ccc(F)cc2C)sc1COC(=O)Nc1ccc2c(c1)ncn2C [Example 13-149]	0.025 µM
CCc1nc(-c2ccc(F)cc2C)sc1COC(=O)Nc1ccc2c(c1)nc1n2CCOC1 [Example 13-150]	0.025 µM
COc1ccc(CN(C)NC(=O)c2sc(-c3ccc(Cl)cc3OC)nc2C)cc1 [Example 16-1, 2-(4-Chloro-2-methoxyphenyl)-4-methylthiazole-5-carboxylic acid N′-(4-methoxybenzyl)-N′-methyl hydrazide]	0.1 µM
COc1ccc(CN(C)NC(=O)c2sc(-c3ccc(Cl)cc3)nc2C)cc1 [Example 16-2]	10 µM
